Measurements as given in ChEMBL document CHEMBL4602688, “Bromopyrrole Alkaloids of the Sponge Agelas oroides Collected Near the Israeli Mediterranean Coastline” (J Nat Prod, 2020).

Tests used:
Assay type in all cases: functional, organism-based
Pseudomonas aeruginosa = experiment: Antibiofilm activity against Pseudomonas aeruginosa PAO1 assessed as inhibition of biofilm formation incubated for 24 hrs by crystal violet staining based assay; details: PAO1, 24 h
Lysinibacillus [1] = experiment: Growth inhibition of Lysinibacillus isolate Eys09 after 24 hrs; details: isolate Eys09, 24 h
Kocuria [2] = experiment: Growth inhibition of Kocuria isolate Eys10 after 24 hrs; details: isolate Eys10, 24 h
Pseudomonas sp. NB86 [3] = experiment: Growth inhibition of Pseudomonas sp. NB86 after 24 hrs; details: Pseudomonas sp. NB86, 24 h
Sporosarcina sp. NB90 = experiment: Growth inhibition of Sporosarcina sp. NB90 after 24 hrs; details: Sporosarcina sp. NB90, 24 h
Pseudomonas sp. [4] = experiment: Growth inhibition of Pseudomonas sp. isolate ISP2_16 after 24 hrs; details: isolate ISP2_16, 24 h
Pseudomonas sp. [5] = experiment: Growth inhibition of Pseudomonas sp. isolate ISP2_Ab after 24 hrs
Pseudomonas sp. [6] = experiment: Growth inhibition of Pseudomonas sp. isolate ISP2_A10pp after 24 hrs
Bacillus sp. = experiment: Growth inhibition of Bacillus sp. isolate ISP2_A_B after 24 hrs; details: Bacillus sp. (in: firmicutes)
Lysinibacillus [7] = experiment: Antibiofilm activity against Lysinibacillus isolate Eys09 assessed as inhibition of biofilm formation incubated for 24 hrs by crystal violet staining based assay; details: isolate Eys09, 24 h
Kocuria [8] = experiment: Antibiofilm activity against Kocuria isolate Eys10 assessed as inhibition of biofilm formation incubated for 24 hrs by crystal violet staining based assay; details: isolate Eys10, 24 h
Pseudomonas sp. NB86 [9] = experiment: Antibiofilm activity against Pseudomonas sp. NB86 assessed as inhibition of biofilm formation incubated for 24 hrs by crystal violet staining based assay; details: Pseudomonas sp. NB86, 24 h
Pseudomonas sp. [10] = experiment: Antibiofilm activity against Pseudomonas sp. isolate ISP2_16 assessed as inhibition of biofilm formation incubated for 24 hrs by crystal violet staining based assay; details: isolate ISP2_16, 24 h
Pseudomonas sp. [11] = experiment: Antibiofilm activity against Pseudomonas sp. isolate ISP2_Ab assessed as inhibition of biofilm formation incubated for 24 hrs by crystal violet staining based assay
Pseudomonas sp. [12] = experiment: Antibiofilm activity against Pseudomonas sp. isolate ISP2_A10pp assessed as inhibition of biofilm formation incubated for 24 hrs by crystal violet staining based assay

Row | SMILES | IC50 (Pseudomonas aeruginosa) [µM] | IC50 (Lysinibacillus [1]) [µM] | IC50 (Kocuria [2]) [µM] | IC50 (Pseudomonas sp. NB86 [3]) [µM] | IC50 (Sporosarcina sp. NB90) [µM] | IC50 (Pseudomonas sp. [4]) [µM] | IC50 (Pseudomonas sp. [5]) [µM] | IC50 (Pseudomonas sp. [6]) [µM] | IC50 (Bacillus sp.) [µM] | IC50 (Lysinibacillus [7]) [µM] | IC50 (Kocuria [8]) [µM] | IC50 (Pseudomonas sp. NB86 [9]) [µM] | IC50 (Pseudomonas sp. [10]) [µM] | IC50 (Pseudomonas sp. [11]) [µM] | IC50 (Pseudomonas sp. [12]) [µM]
1 | NC(=O)c1cc(Br)c(Br)[nH]1 | 15 | – | – | – | – | – | – | – | – | – | – | – | – | – | –
2 | Nc1nc2c([nH]1)c1c(c3[nH]c(N)nc32)[C@H](CNC(=O)c2cc(Br)c(Br)[nH]2)[C@H]1CNC(=O)c1cc(Br)c(Br)[nH]1 [BENZOSCEPTRIN C] | 10 | – | – | – | – | – | – | – | – | – | – | – | – | – | –
3 | Nc1ncc(/C=C/CNC(=O)c2cc(Br)c(Br)[nH]2)[nH]1 [OROIDIN] | 5.1 | 77 | 51 | 330 | 31 | 170 | 310 | 150 | 39 | 7.7 | 10 | 57 | 39 | 3.9 | 10
